Assay results: patent US8846012B2, “Melanin production inhibitor” (Pola Chemical Industries Inc., priority 2008, dated 2014)
Values after ≈ are worked out from the molar mass of the structure shown. Read-outs that look alike come from different tables or passages of the source.

Assays:
[1] = system: Trichopyton mentagrophytes (ATCC18748); test: Measurement of antimycotic activity (Alamar Blue growth inhibition of dermatophytes); assay type: cell-based; conditions: for MIC80: read-out: MIC80 Concentration
Method: 10.4 g of RPMI1640 (manufactured by SAFC Biosciences) were dissolved in 900 mL of distilled water, and 34.53 g of a 0.165 M MOPS buffer (manufactured by DOJINDO LABORATORIES) were added and dissolved by stirring.
Dermatophytes (Trichopyton mentagrophytes (ATCC18748)) were inoculated into a 1/10 Sabouraud Dextrose agar medium (manufactured by DIFCO) and cultured at 28° C. for 14 days, and then a conidial suspension was prepared using 0.1% Tween80-including physiological saline. The suspension was filtered through gauze, and the number of the conidia was counted using a hemocytometer and then adjusted to 2.5×10^5/mL with the RPMI1640 medium. The resultant suspension was used as an inoculum.
Compound 5 and clotrimazole were diluted with the RPMI1640 medium to prepare 0.3125, 0.625, 1.25, 2.5, 5, 10, 20, and 200 μg/mL diluted solutions. The diluted solutions having different concentrations were dispensed into a 96-well flat-bottom microplate in an amount of 100 μL per well, and 80 μL of the inoculum and 20 μL of an Alamar Blue solution (manufactured by Nalgene) were further added thereto. Further, 80 μL of the inoculum and 20 μL of the Alamar Blue solution were added to 100 μL of the RPMI1640 medium in growth control wells, and 20 μL of the Alamar Blue solution was added to 180 μL of the RPMI1640 medium in negative control wells. The microplate was placed in a chamber in which the humidity was kept constant, and culture was started at 27° C., and the cells were observed every 24 hours. 120 hours from beginning of culture, i.e., when the growth control became obviously red (reduced form), absorbance measurement at 570 nm was performed using a microplate reader (SPECTRAMAX 250, manufactured by Molecular Device).
The test compounds were tested at the respective concentrations in triplicate. The growth inhibition rate (%) of each of the test compound-added groups was determined by the following equation based on a value calculated by subtracting an average absorbance value of the negative control from an average absorbance value of the growth control and the test compound-added wells. Further, […] (minimum inhibitory concentration; the minimum concentration at which the growth inhibition rate is 80% or more) was calculated from the growth inhibition rate of each test compound. Growth inhibition rate (%)=[1−(average absorbance value in test compound-added wells-average absorbance value of negative control)/(average absorbance value of growth control-average absorbance value of negative control)]×100
Compound 1, Compounds 3 to 6, Compound 40, Compound 41, triphenylmethylamine, triphenylmethanol, triphenylmethane, aminodiphenylmethane, and clotrimazole were diluted with the RPMI1640 medium to prepare 0.3125, 0.625, 1.25, 2.5, 5, 10, 20, and 200 μg/mL diluted solutions. The diluted solutions having different concentrations were dispensed into a 96-well flat-bottom microplate in an amount of 100 μl, per well, and 80 μL of the inoculum and 20 μl, of an Alamar Blue solution (manufactured by Nalgene) were further added thereto. Further, 80 μl, of the inoculum and 20 μl, of the Alamar Blue solution were added to 100 μL of the RPMI1640 medium in growth control wells, and 20 μL of the Alamar Blue solution was added to 180 μL of the RPMI1640 medium in negative control wells. The microplate was placed in a chamber in which the humidity was kept constant, and then culture was started at 27° C., and the cells were observed every 24 hours. 120 hours from beginning of culture, i.e., when the growth control became obviously red (reduced form), absorbance measurement at 570 nm was performed using a microplate reader (SPECTRAMAX 250, manufactured by Molecular Device).
The test compounds were tested at the respective concentrations in triplicate. […]

[2] = system: ultraviolet ray-induced pigmentation; test: Ultraviolet ray-induced pigmentation inhibition test using pigmented guinea pigs; assay type: in vivo; conditions: for ΔL* value: 1% (w/v) in ethanol, 30 μL once a day for 6 weeks, L* day 57 minus L* day 15, mean ± SD of eight animals; for inhibition of pigmentation induced by ultraviolet rays (in words): applied to the skin at a concentration of 1%
Excerpt: The hair of the dorsal skin of each of eight pigmented guinea pigs was removed and shaved using an electrical hair clipper and shaver, and each of the sites was covered with a black cloth having a total of four (two on the top and bottom and two on the right and left) irradiation windows with a size of 2×2 cm, and then irradiated with ultraviolet rays of 300 mJ/cm^2 using FL20S•E30 lamp as a light source. This operation was repeated on days 1, 3, 5, 8, 10, and 12 after the start of the test to induce pigmentation on the four test sites.
Compound 2, Compound 3, and Compound 4 were dissolved in ethanol at a concentration of 1% (w/v) to prepare samples for application. Further, as a control, ethanol was used alone as a sample for application.
On day 15 of the test, application of the samples was started. The respective samples were applied to the predetermined test sites once a day in an amount of 30 μL, and the application was continued for 6 weeks (until day 56 of the test).
On the day of the start of application (day 15 of the test) and after the completion of application for 6 weeks (on day 57 of the test), the skin brightness (L* value) of each of the test sites was measured using a colorimeter (CR-200, Konica Minolta Holdings, Inc.), and a ΔL* value was calculated by subtracting an L* value on day 15 of the test from an L* value on day 57 of the test. […] As degree of the pigmentation becomes stronger, the L* value becomes smaller. Therefore, it can be evaluated that, as the ΔL* value becomes larger, pigmentation is more inhibited.

[3] = system: normal human melanocytes; test: Melanin production inhibition test using cultured normal human melanocytes (14C-thiouracil incorporation); assay type: cell-based; conditions: Homo sapiens, Melanocyte; for activity at 5 µM: addition amount 5.0 μM
Method: The inhibitory effect on melanin production of the melanin production inhibitor of the present invention can be measured using thiouracil which is incorporated specifically into cells in a melanin synthesis process in the cells. For example, the amount of melanin production can be measured by measuring an amount of thiouracil incorporated into cells by measuring an amount of radiation with radiolabeled thiouracil.
The inhibitory effect on melanin production of Compound 1 was evaluated using 2-thiouracil (^14C-labeled 2-thiouracil was used in this test) which is incorporated specifically into melanin in an intracellular melanin synthesis process. Complete medium for culture of melanocytes (manufactured by Kurabo Industries Ltd.) was added to 15 wells in a 24-well plate in an amount of 2 mL per well, and normal human melanocytes (manufactured by Kurabo Industries Ltd.) were seeded into the wells at a concentration of 1.5×10^4 cells/cm^2. The cells were cultured in a 5% carbon dioxide atmosphere at 37° C. for 24 hours. Thereafter, the medium in all the wells was exchanged under the following conditions: fresh complete medium for culture of melanocytes (control) was used in three wells; each of complete medium for culture of melanocytes, which including Compound 1 at concentrations of 1.0 μM, 2.0 μM, and 4.0 μM, was used in a total of nine wells including three wells for each concentration; and complete medium for culture of melanocytes, each of which including arbutin (positive control) known as a melanin production inhibitor at a concentration of 0.5 mM (500 μM), was used in the other three wells. Further, 2-[2-^14C]thiouracil (^14C-labeled thiouracil) was added to each of these 15 wells at 0.25×10^−6 Ci (curie). Then, the cells were cultured for further 3 days under the same conditions as the above. After the completion of culture, the culture medium was removed from the wells, and the cells were washed with phosphate buffered physiological saline (PBS) and then separated from the bottoms of the wells with medium including trypsin and EDTA to prepare cell suspensions, followed by centrifugation to collect the cells. The number of the cells was counted using a hemocytometer. Thereafter, the amounts of ^14C-thiouracil in the cells collected from each well (0.25×10^−6 Ci) were measured using a liquid scintillation counter (ALOKA CO., LTD.). The percentages of an amount of radioactivity in the cells cultured in the medium including the test substances with respect to an amount of radioactivity in the cells collected from the well of the control were calculated as amounts of melanin (%). That is, as the amount of radioactivity incorporated into the cells is smaller, the amount of melanin is evaluated to be smaller, i.e., the melanin inhibition effect of the component added is evaluated to be larger.
Inhibitory effects on melanin production of Compounds 2 to 39 (however, the effects of Compound 9 and 15 were not measured) were examined in the same procedure as in Test Example 1.
These were examined in the same procedure as in Test Example 1.
Further, the results of melanin production inhibition by treatment with the respective test compounds, determined in the same procedure as in Test Example 1, are also shown in the table.

[4] = minimum concentration at which the growth inhibition rate is 80% or more

MIC80 Concentration [1, 4] [µg/mL]	MIC80 [1, 4] [µg/mL]	Structure (SMILES)	ΔL* value [2]	inhibition of pigmentation induced by ultraviolet rays (in words) [2]	activity at 2 µM ([3]; Table 7, treatment concentration 2 μM, read-out: Amount of melanin) [%]	activity at 2 µM ([3]; Table 2, addition amount 2.0 μM, control = 100%) [%]	growth inhibitory effect on Trichopyton mentagrophytes (in words) ([1]; added at a concentration of 100 μg/mL)	activity at 5 µM ([3]; Table 2, control = 100%) [%]	activity at 10 µM ([3]; Table 7, treatment concentration 10 μM, read-out: Amount of melanin) [%]
100.0000 (≈ 330 µM)	100 (≈ 330 µM)	NCCOC(c1ccccc1)(c1ccccc1)c1ccccc1 [Compound 4, 2-(triphenylmethyloxy)ethylamine]	3.4 ± 0.8	obviously inhibited pigmentation induced by ultraviolet rays	34.2 ± 3.58	33.8 ± 0.8	–	–	–
–	> 100	OCCNC(c1ccccc1)(c1ccccc1)c1ccccc1 [Compound 3, 2-(triphenylmethylamino)ethanol]	3.9 ± 0.52	obviously inhibited pigmentation induced by ultraviolet rays	–	–	no growth inhibitory effect	51.6 ± 4.2	22.3 ± 0.63
–	–	OCCOC(c1ccccc1)(c1ccccc1)c1ccccc1 [Compound 2, 2-(triphenylmethyloxy)ethanol]	3.9 ± 0.94	obviously inhibited pigmentation induced by ultraviolet rays	–	–	–	44 ± 3.2	–
